The values that follow are results of earlier work, collected in patent publication US11478524B1, “Methods and compositions for modulating complex mixtures by selective deletion chromatography” (UNIVERSITY OF SOUTH FLORIDA, priority 2017, dated 2022).

Where two headings read alike, the source gives them in different places.

Take Epigallocatechin-3-gallate [EGCG]: the lifespan extension (under heat stress) is on record as 13% and the lifespan extension (under oxidative stress) is 178%. For the same substance, the effect on longevity result (under normal conditions) is reported as “little effect”.
